Source: PubChem BioAssay AID2060901 (Molecular Pharmacology Branch, DTP, NCI, 2025)

Test system: 422866-222-R5-J1-PDC complex spheroids viability
Test: Anticancer human tumor 422866-222-R5-J1-PDC patient-derived pancreatic adenocarcinoma cell line growth inhibition [RAS]
Conditions: for IC50: curve of first compound; for viability, T/C: stronger effect = lower value
Outline: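 Multi-cell-type spheroids: tumor cells plus HUVEC endothelial cells and mesenchymal stem cells. RAS-pathway inhibitors were combined with targeted agents, each dosed in half-log steps down from clinical Cmax, or from 10 microM when Cmax was unknown.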

[1] = second compound 0.000949 µM, first compound 0.000949 µM
[2] = second compound 0.000949 µM, first compound 0.003 µM
[3] = second compound 0.000949 µM, first compound 0.00949 µM
[4] = second compound 0.000949 µM, first compound 0.03 µM
[5] = second compound 0.000949 µM, first compound 0.0949 µM
[6] = second compound 0.000949 µM, first compound 0.3 µM
[7] = second compound 0.003 µM, first compound 0.000949 µM
[8] = second compound 0.003 µM, first compound 0.003 µM
[9] = second compound 0.003 µM, first compound 0.00949 µM
[10] = second compound 0.003 µM, first compound 0.03 µM
[11] = second compound 0.003 µM, first compound 0.0949 µM
[12] = second compound 0.003 µM, first compound 0.3 µM
[13] = second compound 0.00949 µM, first compound 0.000949 µM
[14] = second compound 0.00949 µM, first compound 0.003 µM
[15] = second compound 0.00949 µM, first compound 0.00949 µM
[16] = second compound 0.00949 µM, first compound 0.03 µM
[17] = second compound 0.00949 µM, first compound 0.0949 µM
[18] = second compound 0.00949 µM, first compound 0.3 µM
[19] = second compound 0.03 µM, first compound 0.000949 µM
[20] = second compound 0.03 µM, first compound 0.003 µM
[21] = second compound 0.03 µM, first compound 0.00949 µM
[22] = second compound 0.03 µM, first compound 0.03 µM
[23] = second compound 0.03 µM, first compound 0.0949 µM
[24] = second compound 0.03 µM, first compound 0.3 µM
[25] = second compound 0.0949 µM, first compound 0.000949 µM
[26] = second compound 0.0949 µM, first compound 0.003 µM
[27] = second compound 0.0949 µM, first compound 0.00949 µM
[28] = second compound 0.0949 µM, first compound 0.03 µM
[29] = second compound 0.0949 µM, first compound 0.0949 µM
[30] = second compound 0.0949 µM, first compound 0.3 µM
[31] = second compound 0.3 µM, first compound 0.000949 µM
[32] = second compound 0.3 µM, first compound 0.003 µM
[33] = second compound 0.3 µM, first compound 0.00949 µM
[34] = second compound 0.3 µM, first compound 0.03 µM
[35] = second compound 0.3 µM, first compound 0.0949 µM
[36] = second compound 0.3 µM, first compound 0.3 µM
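Further: spheroids exposed to compounds for 7 days.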
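Wherever viability, T/C is given: 100% = DMSO vehicle control viability.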

## C=CC(=O)N1CCN(c2nc(OCC3CCCN3C)nc3c(F)c(-c4nc(N)cc(C)c4C(F)(F)F)c(Cl)cc23)C(C)C1 (stereo unspecified) + CCn1c(-c2cccnc2C(C)OC)c2c3cc(ccc31)N1CCOC(CC(NC(=O)C(C(C)C)N(C)C(=O)C3(F)CCN(C(=O)C#CC(C)(C)N(C)C)CC3)C(=O)N3CCCC(N3)C(=O)OCC(C)(C)C2)C1
Second compound 0.000949 µM
  IC50: < 3.16 nM
Second compound 0.003 µM
  IC50: < 3.16 nM
Second compound 0.00949 µM
  IC50: < 3.16 nM
Second compound 0.03 µM
  IC50: < 3.16 nM
Second compound 0.0949 µM
  IC50: < 3.16 nM
Second compound 0.3 µM
  IC50: < 3.16 nM
Second compound 0.000949 µM, first compound 0.00316 µM
  viability, T/C: 24.9%
Second compound 0.000949 µM, first compound 0.01 µM
  viability, T/C: 25.5%
Second compound 0.000949 µM, first compound 0.0316 µM
  viability, T/C: 23.4%
Second compound 0.000949 µM, first compound 0.1 µM
  viability, T/C: 23.8%
Second compound 0.000949 µM, first compound 0.316 µM
  viability, T/C: 21.1%
Second compound 0.000949 µM, first compound 1 µM
  viability, T/C: 22.7%
Second compound 0.003 µM, first compound 0.00316 µM
  viability, T/C: 24.1%
Second compound 0.003 µM, first compound 0.01 µM
  viability, T/C: 25.6%
Second compound 0.003 µM, first compound 0.0316 µM
  viability, T/C: 21.5%
Second compound 0.003 µM, first compound 0.1 µM
  viability, T/C: 22.8%
Second compound 0.003 µM, first compound 0.316 µM
  viability, T/C: 21.1%
Second compound 0.003 µM, first compound 1 µM
  viability, T/C: 24%
Second compound 0.00949 µM, first compound 0.00316 µM
  viability, T/C: 22.8%
Second compound 0.00949 µM, first compound 0.01 µM
  viability, T/C: 24.2%
Second compound 0.00949 µM, first compound 0.0316 µM
  viability, T/C: 23.3%
Second compound 0.00949 µM, first compound 0.1 µM
  viability, T/C: 20.6%
Second compound 0.00949 µM, first compound 0.316 µM
  viability, T/C: 21.6%
Second compound 0.00949 µM, first compound 1 µM
  viability, T/C: 22.1%
Second compound 0.03 µM, first compound 0.00316 µM
  viability, T/C: 21.2%
Second compound 0.03 µM, first compound 0.01 µM
  viability, T/C: 23.9%
Second compound 0.03 µM, first compound 0.0316 µM
  viability, T/C: 17.8%
Second compound 0.03 µM, first compound 0.1 µM
  viability, T/C: 18.9%
Second compound 0.03 µM, first compound 0.316 µM
  viability, T/C: 21.1%
Second compound 0.03 µM, first compound 1 µM
  viability, T/C: 22.4%
Second compound 0.0949 µM, first compound 0.00316 µM
  viability, T/C: 21.4%
Second compound 0.0949 µM, first compound 0.01 µM
  viability, T/C: 19.8%
Second compound 0.0949 µM, first compound 0.0316 µM
  viability, T/C: 20.1%
Second compound 0.0949 µM, first compound 0.1 µM
  viability, T/C: 20.2%
Second compound 0.0949 µM, first compound 0.316 µM
  viability, T/C: 19.7%
Second compound 0.0949 µM, first compound 1 µM
  viability, T/C: 21.3%
Second compound 0.3 µM, first compound 0.00316 µM
  viability, T/C: 18%
Second compound 0.3 µM, first compound 0.01 µM
  viability, T/C: 18%
Second compound 0.3 µM, first compound 0.0316 µM
  viability, T/C: 20.5%
Second compound 0.3 µM, first compound 0.1 µM
  viability, T/C: 19.6%
Second compound 0.3 µM, first compound 0.316 µM
  viability, T/C: 16.5%
Second compound 0.3 µM, first compound 1 µM
  viability, T/C: 20%

## CC1(C)CCC(Nc2ncc(C(F)(F)F)c(-c3c[nH]c4c(P(C)(C)=O)c(C#N)ccc34)n2)CN1 (stereo unspecified) + CCn1c(-c2cccnc2C(C)OC)c2c3cc(ccc31)N1CCOC(CC(NC(=O)C(C(C)C)N(C)C(=O)C3(F)CCN(C(=O)C#CC(C)(C)N(C)C)CC3)C(=O)N3CCCC(N3)C(=O)OCC(C)(C)C2)C1
Second compound 0.000949 µM
  IC50: < 0.949 nM
Second compound 0.003 µM
  IC50: < 0.949 nM
Second compound 0.00949 µM
  IC50: < 0.949 nM
Second compound 0.03 µM
  IC50: < 0.949 nM
Second compound 0.0949 µM
  IC50: < 0.949 nM
Second compound 0.3 µM
  IC50: < 0.949 nM
[1]
  viability, T/C: 27.9%
[2]
  viability, T/C: 27%
[3]
  viability, T/C: 30.9%
[4]
  viability, T/C: 31.1%
[5]
  viability, T/C: 31%
[6]
  viability, T/C: 32.6%
[7]
  viability, T/C: 25.2%
[8]
  viability, T/C: 27%
[9]
  viability, T/C: 27.6%
[10]
  viability, T/C: 24.8%
[11]
  viability, T/C: 28.6%
[12]
  viability, T/C: 26.9%
[13]
  viability, T/C: 24.1%
[14]
  viability, T/C: 24.4%
[15]
  viability, T/C: 26.1%
[16]
  viability, T/C: 26.2%
[17]
  viability, T/C: 26.1%
[18]
  viability, T/C: 27.2%
[19]
  viability, T/C: 24.2%
[20]
  viability, T/C: 25.8%
[21]
  viability, T/C: 24.2%
[22]
  viability, T/C: 26.3%
[23]
  viability, T/C: 28.2%
[24]
  viability, T/C: 28.5%
[25]
  viability, T/C: 20.1%
[26]
  viability, T/C: 22.7%
[27]
  viability, T/C: 25.4%
[28]
  viability, T/C: 23.6%
[29]
  viability, T/C: 26.7%
[30]
  viability, T/C: 25.6%
[31]
  viability, T/C: 20%
[32]
  viability, T/C: 22.8%
[33]
  viability, T/C: 24.2%
[34]
  viability, T/C: 24.8%
[35]
  viability, T/C: 28.1%
[36]
  viability, T/C: 24.6%

## CCc1c2c(nc3ccc(O)cc13)-c1cc3c(c(=O)n1C2)COC(=O)[C@]3(O)CC + CCn1c(-c2cccnc2C(C)OC)c2c3cc(ccc31)N1CCOC(CC(NC(=O)C(C(C)C)N(C)C(=O)C3(F)CCN(C(=O)C#CC(C)(C)N(C)C)CC3)C(=O)N3CCCC(N3)C(=O)OCC(C)(C)C2)C1
Second compound 0.000949 µM
  IC50: < 0.949 nM
Second compound 0.003 µM
  IC50: < 0.949 nM
Second compound 0.00949 µM
  IC50: < 0.949 nM
Second compound 0.03 µM
  IC50: < 0.949 nM
Second compound 0.0949 µM
  IC50: < 0.949 nM
Second compound 0.3 µM
  IC50: < 0.949 nM
[1]
  viability, T/C: 28.2%
[2]
  viability, T/C: 22.7%
[3]
  viability, T/C: 26.9%
[4]
  viability, T/C: 22%
[5]
  viability, T/C: 19.6%
[6]
  viability, T/C: 15.6%
[7]
  viability, T/C: 24.8%
[8]
  viability, T/C: 15.5%
[9]
  viability, T/C: 15.5%
[10]
  viability, T/C: 14.1%
[11]
  viability, T/C: 15.5%
[12]
  viability, T/C: 15.1%
[13]
  viability, T/C: 22.1%
[14]
  viability, T/C: 17.7%
[15]
  viability, T/C: 17.7%
[16]
  viability, T/C: 15%
[17]
  viability, T/C: 14.6%
[18]
  viability, T/C: 12.3%
[19]
  viability, T/C: 19.5%
[20]
  viability, T/C: 15.7%
[21]
  viability, T/C: 14.8%
[22]
  viability, T/C: 13.9%
[23]
  viability, T/C: 13.2%
[24]
  viability, T/C: 10.7%
[25]
  viability, T/C: 15.9%
[26]
  viability, T/C: 13%
[27]
  viability, T/C: 11.3%
[28]
  viability, T/C: 12.3%
[29]
  viability, T/C: 11.1%
[30]
  viability, T/C: 9.62%
[31]
  viability, T/C: 13.9%
[32]
  viability, T/C: 14.3%
[33]
  viability, T/C: 11.5%
[34]
  viability, T/C: 10.7%
[35]
  viability, T/C: 10.3%
[36]
  viability, T/C: 7%
